Results on three compounds are retold here after US12053459B2, “CDK2 inhibitors and methods of using the same” (Cedilla Therapeutics, Inc., priority 2021, dated 2024).

What all share (details): class symbols A-D
One experiment has as its target CDK2/Cyclin E1(14-475) (Homo sapiens, UniProt P24941). Briefly: Caliper LabChip EZ Reader mobility shift assay, inhibition of CDK2/Cyclin E1 activity. The format is biochemical. The essentials: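 Mobility-shift readout of fluorescent peptide (1.5 μM final) phosphorylation by 2.5 nM CDK2/Cyclin E1(14-475) at 100 μM ATP, pH 7.5. Compounds pre-incubated 30 min with enzyme before substrate addition; 100-min reaction halted by EDTA, normalized % activity fitted to four-parameter curve for IC50.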

For experiment [1], the system named is Kuramochi cells. Briefly: BrdU cell proliferation assay (colorimetric ELISA), Kuramochi cells. The format is cell-based. The essentials:
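Proliferation was read as BrdU incorporation: a 1 h pulse, then fixation and peroxidase-antibody ELISA at 450 nm, with values normalized to DMSO after empty-well subtraction. Treatment lasted 4 days on Kuramochi cells seeded at 2,000/well, using four 3-fold compound dilutions from 10 mM stocks. RB^KO Kuramochi cells were run in parallel for specificity.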
On the technique in general: ELISA stands for enzyme-linked immunosorbent assay.

Experiment [2] concerns Kuramochi cells. Description: Incucyte cell proliferation assay, Kuramochi cells labeled with mApple-H2B. The format is cell-based. Here is the method:
Kuramochi cells labeled with mApple-H2B and Kuramochi RB1−/− cells labeled with NucLight green (Sartorius, 4475) were co-plated on 384-well assay-ready plates along with test compounds at varying concentrations. Plates were placed in the IncuCyte® Sartorius and scanned at 0 and 72 hours. IncuCyte® software was used to count the number of fluorescent nuclei in each well. The fold change in cell count from 0 to 72 hours in wells treated with increasing compounds concentrations (10 pts, ½ log dilution, 20 uM top concentration) was normalized to DMSO control wells. The normalized cell counts were fit with dose response curves and a GI50 was calculated.

Consider `CNC(=O)[C@@H](NC(=O)C1CN(C(=O)Cc2c[nH]c3cc(Cl)ccc23)CC2CN(C(=O)c3ccc(OC(C)C)c(OC)c3)CC21)[C@H](C)OCc1ccccc1` (single isomer, unassigned) [I-147], for which the IC50 at CDK2/Cyclin E1(14-475) and with Kuramochi cells [1] was more than 10 µM in each case. For the same compound, in the experiment with Kuramochi cells [2] (72 hours), the GI50 (as a rule, the concentration that inhibits growth by half) is more than 20 µM.

As for `CNC(=O)[C@@H](NC(=O)C1CN(C(=O)Cc2c[nH]c3cc(Cl)ccc23)CC2CN(C(=O)c3ccc(OC(C)C)c(OC)c3)CC21)[C@H](C)OCc1ccccc1` (single isomer, unassigned) [I-148], the IC50 – broadly, the concentration that inhibits the measured activity by half – is 0.5 to 5 µM at CDK2/Cyclin E1(14-475) and more than 10 µM in the experiment with Kuramochi cells [1]. Also, the GI50 in the experiment on Kuramochi cells [2] (72 hours) is more than 20 µM.

Turning to `CNC(=O)[C@@H](NC(=O)C1CN(C(=O)Cc2c[nH]c3cc(Cl)ccc23)CC2CN(C(=O)c3ccc(OC(C)C)c(OC)c3)CC21)[C@H](C)OCc1ccccc1` (stereo partly drawn) [I-106], the IC50 on CDK2/Cyclin E1(14-475) is not above 0.5 µM; with Kuramochi cells [1] it was 0.5 to 5 µM. In the experiment with Kuramochi cells [2] (72 h), this compound returned a GI50 of 1 to 10 µM.
